PubChem BioAssay (NCI)
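Dose response: 5 concentrations. Exposure: 48 h. Format: 96-well plates. Endpoint: linear interpolation; highest concentration if not reached. TGI is the concentration that stops growth completely.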

Assays:
Assay in all cases: NCI tumour cell line growth inhibition, 48 h
HCT-15 colon = tested on: HCT-15 colon
OVCAR-4 ovarian = tested on: OVCAR-4 ovarian
MDA-MB-231 breast = tested on: MDA-MB-231 breast
NCI/ADR-RES ovarian = tested on: NCI/ADR-RES ovarian
DU-145 prostate = tested on: DU-145 prostate
SK-OV-3 ovarian = tested on: SK-OV-3 ovarian
U251 CNS = tested on: U251 CNS
ACHN renal = tested on: ACHN renal
T-47D breast = tested on: T-47D breast
COLO 205 colon = tested on: COLO 205 colon
SK-MEL-5 melanoma = tested on: SK-MEL-5 melanoma
SF-295 CNS = tested on: SF-295 CNS
HCT-116 colon = tested on: HCT-116 colon
NCI-H226 lung = tested on: NCI-H226 lung
NCI-H23 lung = tested on: NCI-H23 lung
HT29 colon = tested on: HT29 colon
786-0 renal = tested on: 786-0 renal
UACC-257 melanoma = tested on: UACC-257 melanoma
SK-MEL-2 melanoma = tested on: SK-MEL-2 melanoma
M14 melanoma = tested on: M14 melanoma
NCI-H460 lung = tested on: NCI-H460 lung
SR leukemia = tested on: SR leukemia
SNB-19 CNS = tested on: SNB-19 CNS
MDA-MB-435 = tested on: MDA-MB-435
RXF 393 renal = tested on: RXF 393 renal
A498 renal = tested on: A498 renal
OVCAR-8 ovarian = tested on: OVCAR-8 ovarian
KM12 colon = tested on: KM12 colon
OVCAR-3 ovarian = tested on: OVCAR-3 ovarian
SN12C renal = tested on: SN12C renal
UACC-62 melanoma = tested on: UACC-62 melanoma
SF-268 CNS = tested on: SF-268 CNS
NCI-H522 lung = tested on: NCI-H522 lung
MOLT-4 leukemia = tested on: MOLT-4 leukemia
HCC-2998 colon = tested on: HCC-2998 colon
EKVX NSCLC = tested on: EKVX NSCLC
MDA-N = tested on: MDA-N
BT-549 breast = tested on: BT-549 breast
HS 578T breast = tested on: HS 578T breast
TK-10 renal = tested on: TK-10 renal
IGROV1 ovarian = tested on: IGROV1 ovarian
CCRF-CEM leukemia = tested on: CCRF-CEM leukemia
UO-31 renal = tested on: UO-31 renal
MCF7 breast = tested on: MCF7 breast
PC-3 prostate = tested on: PC-3 prostate
HOP-62 NSCLC = tested on: HOP-62 NSCLC
OVCAR-5 ovarian = tested on: OVCAR-5 ovarian
MALME-3M melanoma = tested on: MALME-3M melanoma
SNB-75 CNS = tested on: SNB-75 CNS
A549 NSCLC = tested on: A549 NSCLC
K-562 leukemia = tested on: K-562 leukemia
CAKI-1 renal = tested on: CAKI-1 renal
SF-539 CNS = tested on: SF-539 CNS
SK-MEL-28 melanoma = tested on: SK-MEL-28 melanoma
SW-620 colon = tested on: SW-620 colon
RPMI-8226 leukemia = tested on: RPMI-8226 leukemia
LOX IMVI melanoma = tested on: LOX IMVI melanoma
HL-60(TB) leukemia = tested on: HL-60(TB) leukemia

CC(=O)N1C(=O)/C(=C\C(=O)c2ccc([N+](=O)[O-])cc2)c2ccccc21
TGI (HCT-15 colon): 32.1 µM
TGI (OVCAR-4 ovarian): 34.5 µM
TGI (MDA-MB-231 breast): 84.5 µM
TGI (NCI/ADR-RES ovarian): > 100 µM
TGI (DU-145 prostate): > 100 µM
TGI (SK-OV-3 ovarian): > 100 µM
TGI (U251 CNS): 46.4 µM
TGI (ACHN renal): 29.6 µM
TGI (T-47D breast): 61.9 µM
TGI (COLO 205 colon): 41.1 µM
TGI (SK-MEL-5 melanoma): > 100 µM
TGI (SF-295 CNS): > 100 µM
TGI (HCT-116 colon): 37.8 µM
TGI (NCI-H226 lung): > 100 µM
TGI (NCI-H23 lung): 88.7 µM
TGI (HT29 colon): 34.6 µM
TGI (786-0 renal): 29.1 µM
TGI (UACC-257 melanoma): 40.9 µM
TGI (SK-MEL-2 melanoma): > 100 µM
TGI (M14 melanoma): > 100 µM
TGI (NCI-H460 lung): 39.9 µM
TGI (SR leukemia): 20.3 µM
TGI (SNB-19 CNS): > 100 µM
TGI (MDA-MB-435): 61.2 µM
TGI (RXF 393 renal): > 100 µM
TGI (A498 renal): > 100 µM
TGI (OVCAR-8 ovarian): > 100 µM
TGI (KM12 colon): 55.5 µM
TGI (OVCAR-3 ovarian): 32.2 µM
TGI (SN12C renal): 35 µM
TGI (UACC-62 melanoma): 38.1 µM
TGI (SF-268 CNS): 49.2 µM
TGI (NCI-H522 lung): 30.9 µM
TGI (MOLT-4 leukemia): 51.6 µM
TGI (HCC-2998 colon): 36.7 µM
TGI (EKVX NSCLC): 51.6 µM
TGI (MDA-N): 49.2 µM
TGI (BT-549 breast): 42.1 µM
TGI (HS 578T breast): 54.2 µM
TGI (TK-10 renal): 26.3 µM
TGI (IGROV1 ovarian): 53.9 µM
TGI (CCRF-CEM leukemia): 16.9 µM
TGI (UO-31 renal): 63 µM
TGI (MCF7 breast): 69.7 µM
TGI (PC-3 prostate): 58.4 µM
TGI (HOP-62 NSCLC): > 100 µM
TGI (OVCAR-5 ovarian): > 100 µM
TGI (MALME-3M melanoma): 45.9 µM
TGI (SNB-75 CNS): 49.6 µM
TGI (A549 NSCLC): > 100 µM
TGI (K-562 leukemia): 36.5 µM
TGI (CAKI-1 renal): 41.2 µM
TGI (SF-539 CNS): 49.8 µM

CC(=O)OCC1OC(SC2=N/C(=C\c3cc4c(=O)c5ccccc5sc4s3)C(=O)N2c2ccccc2)C(OC(C)=O)C(OC(C)=O)C1OC(C)=O (stereo unspecified)
TGI (HCT-15 colon): > 100 µM
TGI (OVCAR-4 ovarian): > 100 µM
TGI (MDA-MB-231 breast): > 100 µM
TGI (NCI/ADR-RES ovarian): > 100 µM
TGI (DU-145 prostate): > 100 µM
TGI (SK-MEL-28 melanoma): > 100 µM
TGI (U251 CNS): 62.8 µM
TGI (ACHN renal): > 100 µM
TGI (T-47D breast): > 100 µM
TGI (COLO 205 colon): > 100 µM
TGI (SK-MEL-5 melanoma): > 100 µM
TGI (SF-295 CNS): > 100 µM
TGI (HCT-116 colon): > 100 µM
TGI (NCI-H226 lung): > 100 µM
TGI (NCI-H23 lung): > 100 µM
TGI (HT29 colon): > 100 µM
TGI (786-0 renal): > 100 µM
TGI (UACC-257 melanoma): > 100 µM
TGI (SK-MEL-2 melanoma): > 100 µM
TGI (NCI-H460 lung): > 100 µM
TGI (SR leukemia): > 100 µM
TGI (SNB-19 CNS): > 100 µM
TGI (SW-620 colon): > 100 µM
TGI (MDA-MB-435): > 100 µM
TGI (RXF 393 renal): > 100 µM
TGI (RPMI-8226 leukemia): > 100 µM
TGI (A498 renal): > 100 µM
TGI (OVCAR-8 ovarian): > 100 µM
TGI (KM12 colon): > 100 µM
TGI (OVCAR-3 ovarian): > 100 µM
TGI (SN12C renal): > 100 µM
TGI (UACC-62 melanoma): > 100 µM
TGI (SF-268 CNS): > 100 µM
TGI (NCI-H522 lung): > 100 µM
TGI (MOLT-4 leukemia): 54.4 µM
TGI (HCC-2998 colon): > 100 µM
TGI (EKVX NSCLC): > 100 µM
TGI (MDA-N): > 100 µM
TGI (BT-549 breast): > 100 µM
TGI (HS 578T breast): > 100 µM
TGI (TK-10 renal): > 100 µM
TGI (LOX IMVI melanoma): > 100 µM
TGI (IGROV1 ovarian): > 100 µM
TGI (UO-31 renal): > 100 µM
TGI (MCF7 breast): > 100 µM
TGI (PC-3 prostate): > 100 µM
TGI (HOP-62 NSCLC): > 100 µM
TGI (OVCAR-5 ovarian): > 100 µM
TGI (MALME-3M melanoma): > 100 µM
TGI (SNB-75 CNS): > 100 µM
TGI (HL-60(TB) leukemia): 53.3 µM
TGI (K-562 leukemia): > 100 µM
TGI (CAKI-1 renal): > 100 µM
